Test results taken from paper PMC11989239, “Structure–Property Relationships in Novel Series of Photoswitchable Local Anesthetic Ethercaine Derivatives: Emphasis on Biological and Photophysical Properties” (International Journal of Molecular Sciences, 2025).
Counter-ions that a name gives are not always drawn.

How the values were obtained:
[1] = Z-E isomerization half-life by UV/Vis spectrophotometry after 365 nm irradiation; format: physicochemical; conditions: for τ1/2 (DMSO), Z-E isomerization half-life: RT, after 365 nm 5 min; for τ1/2 (Aqueous Kolliphor ELP), Z-E isomerization half-life: aqueous 4% Kolliphor ELP solution
Procedure: As one of the main physicochemical properties of photopharmacological agents, the Z-E half-life was investigated, which determines the stability of the Z-isomer. The Z-E half-lifes were measured using UV/Vis spectrophotometry, converting the compound to the Z-isomer by irradiating with UV light and observing the change in absorption intensity due to reverse Z-E relaxation.
Z-E isomerization half-life was determined using UV/Vis spectroscopy. Solutions were prepared and kept in the dark at RT before the experiment. First, the spectrum in the dark was registered ( PSSdark) , which corresponds to the photostationary state (PSS) with E-isomer predominance. Then, the cuvette with the solution was irradiated with UV light (λ = 365 nm) for 5 min to give the PSS with Z-isomer predominance. The corresponding spectrum was registered ( PSS365nm) . During the subsequent isomerization, the kinetics of changes in the absorption value were recorded at the wavelength of the absorption maximum corresponding to the E-isomer ( λmax(E)) . Then, lnAt/A0 values were calculated using the Equation (1):(1) lnAt/A0=lnAbsPSS(dark)−Abstime/AbsPSS(dark)−AbsPSS(365nm), where AbsPSS(dark) , AbsPSS(365nm), and Abstime are absorbance values at λmax(E) in the dark at the beginning of the experiment, after UV light (λ = 365 nm) irradiation, and at different time points from 0 to 60 min, respectively. Then, a graph was plotted depending on lnAt/A0 values from time, the trend line was calculated, and a first-order rate constant (k) for the thermal back Z-E isomerization reaction was obtained as the slope of the trend line.
For a first-order reaction, half-life t1/2 can be calculated using the Equation (2):(2) t1/2=ln2/k

rabbit eye cornea = assay: Surface anesthesia on the rabbit cornea, Regnier method (Regnier index); format: in vivo; conditions: for Local Anesthetic Activity (Regnier Index, Min—13, Max—1300) In the Dark / Local Anesthetic Activity (Regnier Index, Min—13, Max—1300) Under Irradiation (λ = 365 nm): 1% solution, 0.2 mL instilled, mean ± SD; for Local Anesthetic Activity (Regnier Index, Min—13, Max—1300) In the Dark: in the dark (E-form predominance); for Local Anesthetic Activity (Regnier Index, Min—13, Max—1300) Under Irradiation (λ = 365 nm): solution irradiated with UV 365 nm (Z-form predominance)
Procedure: Thus, the main biological property investigated in this work was the local anesthetic activity of the new derivatives in the dark (with a predominance of the E-form) and under irradiation (with a predominance of the Z-form). The evaluation of local anesthetic activity was conducted on the rabbit cornea using the Regnier method. […] RI values in darkness (451 ± 40) and under UV light irradiation (469 ± 37) for a 2% solution of lidocaine, used as a reference drug, were obtained previously and are independent of light exposure. A 4% aqueous solution of Kolliphor® ELP, used for solubilizing ethercaine and its derivatives and lacking intrinsic local anesthetic activity, was employed as a negative control. In vitro cytotoxicity studies were conducted to initially assess the safety of the compounds.
Non-anesthetized, mature male rabbits of a Soviet chinchilla breed weighing 2–3 kg, obtained from the KrolInfo farm (Orekhovo-Zuyevo, Russia), were used in this study. Animals were kept under standard conditions (humidity 50–60%, temperature 19–22 °C). A 12-h lighting cycle was maintained. Each animal was kept in a separate cage. Animals had ad libitum access to standard extruded feed “CHARA” (CJSC “Assortiment-Agro”, Turakovo Village, Moscow region, Russia) and clean drinking water. Water treatment was performed using a “7 TECHNOCOM” block modular system (LLC “7 TECH”, Moscow, Russia). For in vivo, surface anesthesia measurements, an in-house-made anesthesiometer with a fixed length of a nylon filament (l = 1.0 cm, d = 0.125 mm) was used. Statistical analysis was performed, and figures were plotted using the Python programming language’s standard functions and a Matplotlib package (Version 3.8) for Python. All biological data conformed to a normal distribution (Shapiro–Wilk’s W test, p > 0.05). All data are expressed as the mean ± standard deviation.
For determination of the rabbit eye cornea’s sensitivity using the surface anesthesia method, 12 rabbits with a basic sensitivity threshold (sensitivity threshold of the eye cornea to tactile impact of the anesthesiometer) of 1–2 touches were selected. They were used in experiments repeatedly with an interval of at least 5 days between the experiments. Each eye was considered as a separate experimental point. Three animals were used in each of the experimental groups (n = 6). Two animals (n = 4) were used in each of the negative control groups and in each of experimental groups with UV irradiation due to the expected lack of the effect and to minimize the number of animals in the experiment. Animals were randomly divided into groups. Before an experiment, the animals were immobilized, leaving the head free. Before each experiment, the animals’ eyelashes were cut out, and the basic threshold of sensitivity of the eye cornea to tactile contact was determined using an anesthesiometer.
The irradiation modes were described earlier. Experiments with animals were carried out in a darkened room with a 50W LED light source (λ = 625 nm), which lies outside the absorption bands of the UV/Vis spectrum of the test compound. Before the experiments, solutions of test compounds were irradiated for 5 min with UV light (λ = 365 nm, LED flashlight, 0.5 W).
The adaptation of a model of surface anesthesia on the rabbit’s cornea using the Regnier method for the study of light-controlled local anesthetics was described earlier. The test solution (0.2 mL) of the required concentration (2% for the lidocaine or 1% for the ethercaine and its derivatives) was instilled into each conjunctival sac. After that, the sensitivity threshold of the eye cornea to tactile impact was determined. The first determination was performed at the 8th minute of the experiment and then at the 10th, 12th, 15th, 20th, 25th, 30th, 35th, 40th, 45th, 50th, 55th, and 60th min (13 values overall). […]

[2] = test system: human dermal fibroblasts (DF2); assay: In vitro cytotoxicity, MTT test, 24 h incubation; format: cell-based
Procedure: (§1) The culture of dermal fibroblast cells (DF2) was obtained from the collection of the Institute of Cytology of the Russian Academy of Sciences (Saint Petersburg, Russia). The cells were cultured in plastic vials with a cell growth surface of 25 cm^2 (Costar, Richmond, VA, USA) on DMEM/F12 medium with the addition of L-glutamine and 10% fetal bovine serum (FBS) (PanEco, Moscow, Russia). The cells were cultured at 37 °C in a humid atmosphere with a content of 5% CO2 (Binder CO2 incubator, Germany). Cell lines from 3 to 7 passages were used in the work. To conduct experiments to evaluate the cytotoxicity of compounds, cells were sieved into 96-well culture plates at a concentration of 10^5 cells per ml, incubated at 37 °C (humidified atmosphere, 5% carbon dioxide) for 24–28 h. Further, 50 µL of the studied substances was added. The cells were incubated with the compounds for 24 h at 37 °C. Next, the cytotoxic effect of the substances was evaluated by a colorimetric method using an MTT test and visually, using an inverted microscope. The criterion for evaluating the specific activity of the compound was the value of IC50, the concentration at which 50% death of culture cells was noted.

[3] = In vitro cytotoxicity, MTT test, 24 h incubation; format: cell-based, human; conditions: human, dermal fibroblast cells (DF2), DF2 fibroblasts
Procedure: as §1

Structure (SMILES): Cl.Fc1cc(OCCN2CCOCC2)ccc1N=Nc1c(F)cccc1F [Compound 20g, 2,2′,6′-trifluoro-4-(2-(N-morpholino)-ethoxy)-azobenzene hydrochloride]
- τ1/2 (DMSO), Z-E isomerization half-life [1]: 137 h
- τ1/2 (Aqueous Kolliphor ELP), Z-E isomerization half-life [1]: 5.0 h
- Local Anesthetic Activity (Regnier Index, Min—13, Max—1300) In the Dark (rabbit eye cornea): 437 ± 37 (n = 6)
- Local Anesthetic Activity (Regnier Index, Min—13, Max—1300) Under Irradiation (λ = 365 nm) (rabbit eye cornea): 45 ± 9 (n = 4)
- IC50 [2]: 180 µM

Structure (SMILES): Cc1cnc(/N=N/c2ccc(OCCN3CCOCC3)cc2)s1 [Compound 25b, 2-(4-(2-(N-morpholino)-ethoxy)-phenylazo)-5-methylthiazole hydrochloride]
- τ1/2 (DMSO), Z-E isomerization half-life [1]: 0.083 h
- τ1/2 (Aqueous Kolliphor ELP), Z-E isomerization half-life [1]: 0.067 h
- IC50 at 24 h [3]: 440 µM

Structure (SMILES): Cl.Fc1ccccc1N=Nc1ccc(OCCN2CCOCC2)cc1F [Compound 20d, 2,2′-difluoro-4-(2-(N-morpholino)-ethoxy)-azobenzene hydrochloride]
- τ1/2 (DMSO), Z-E isomerization half-life [1]: 8.1 h
- τ1/2 (Aqueous Kolliphor ELP), Z-E isomerization half-life [1]: 2.3 h
- Local Anesthetic Activity (Regnier Index, Min—13, Max—1300) In the Dark (rabbit eye cornea): 419 ± 57 (n = 6)
- Local Anesthetic Activity (Regnier Index, Min—13, Max—1300) Under Irradiation (λ = 365 nm) (rabbit eye cornea): 84 ± 8 (n = 4)
- IC50 [2]: 190 µM

Structure (SMILES): CN1CCN(CCOc2ccc(/N=N/c3ccccc3)cc2)CC1 [Compound 14, 4-(2-(4-Methyl-1-Piperazino)-Ethoxy)-Azobenzene Dihydrochloride]
- τ1/2 (DMSO), Z-E isomerization half-life [1]: 18.6 h
- τ1/2 (Aqueous Kolliphor ELP column), Z-E isomerization half-life ([1]; value obtained for the solution in water): 3.5 h
- IC50 at 24 h [3]: 60 µM

Structure (SMILES): Cl.Fc1ccccc1N=Nc1c(F)cc(OCCN2CCOCC2)cc1F [Compound 20e, 2,2′,6-trifluoro-4-(2-(N-morpholino)-ethoxy)-azobenzene hydrochloride]
- τ1/2 (DMSO), Z-E isomerization half-life [1]: 703 h
- τ1/2 (Aqueous Kolliphor ELP), Z-E isomerization half-life [1]: 60 h
- Local Anesthetic Activity (Regnier Index, Min—13, Max—1300) In the Dark (rabbit eye cornea): 395 ± 72 (n = 6)
- Local Anesthetic Activity (Regnier Index, Min—13, Max—1300) Under Irradiation (λ = 365 nm) (rabbit eye cornea): 59 ± 18 (n = 4)
- IC50 [2]: 190 µM

Structure (SMILES): CCN(CC)CCOc1ccc(N=Nc2ccccc2)cc1.Cl [Compound 16, 4-(2-(N,N-Diethylamino)Ethoxy)Azobenzene Hydrochloride]
- τ1/2 (DMSO), Z-E isomerization half-life [1]: 15.6 h
- τ1/2 (Aqueous Kolliphor ELP), Z-E isomerization half-life [1]: 6.0 h
- IC50 at 24 h [3]: 90 µM

Structure (SMILES): Cl.Fc1cccc(F)c1N=Nc1c(F)cc(OCCN2CCOCC2)cc1F [Compound 20h, 2,2′,6,6′-tetrafluoro-4-(2-(N-morpholino)-ethoxy)-azobenzene hydrochloride]
- τ1/2 (DMSO), Z-E isomerization half-life [1]: 1190 h
- τ1/2 (Aqueous Kolliphor ELP), Z-E isomerization half-life [1]: 281 h
- Local Anesthetic Activity (Regnier Index, Min—13, Max—1300) In the Dark (rabbit eye cornea): 353 ± 10 (n = 6)
- Local Anesthetic Activity (Regnier Index, Min—13, Max—1300) Under Irradiation (λ = 365 nm) (rabbit eye cornea): 35 ± 7 (n = 4)
- IC50 [2]: 440 µM

Structure (SMILES): Cl.Fc1cc(OCCN2CCOCC2)ccc1N=Nc1ccccc1 [Compound 20a, 2-fluoro-4-(2-(N-morpholino)-ethoxy)-azobenzene hydrochloride]
- τ1/2 (DMSO), Z-E isomerization half-life [1]: 7.8 h
- τ1/2 (Aqueous Kolliphor ELP), Z-E isomerization half-life [1]: 2.5 h
- Local Anesthetic Activity (Regnier Index, Min—13, Max—1300) In the Dark (rabbit eye cornea): 509 ± 34 (n = 6)
- Local Anesthetic Activity (Regnier Index, Min—13, Max—1300) Under Irradiation (λ = 365 nm) (rabbit eye cornea): 64 ± 15 (n = 4)
- IC50 [2]: 190 µM

Structure (SMILES): Cl.Fc1cccc(F)c1N=Nc1ccc(OCCN2CCOCC2)cc1 [Compound 20f, 2′,6′-difluoro-4-(2-(N-morpholino)-ethoxy)-azobenzene hydrochloride]
- τ1/2 (DMSO), Z-E isomerization half-life [1]: 24 h
- τ1/2 (Aqueous Kolliphor ELP), Z-E isomerization half-life [1]: 1.0 h
- Local Anesthetic Activity (Regnier Index, Min—13, Max—1300) In the Dark (rabbit eye cornea): 570 ± 87 (n = 6)
- Local Anesthetic Activity (Regnier Index, Min—13, Max—1300) Under Irradiation (λ = 365 nm) (rabbit eye cornea): 76 ± 19 (n = 4)
- IC50 [2]: 210 µM

Structure (SMILES): c1ccc(/N=N/c2cccc(OCCN3CCOCC3)c2)cc1 [Compound 9b, 3-(2-(N-morpholino)-ethoxy)-azobenzene hydrochloride]
- τ1/2 (DMSO), Z-E isomerization half-life [1]: 26.8 h
- τ1/2 (Aqueous Kolliphor ELP), Z-E isomerization half-life [1]: 437 h
- IC50 at 24 h [3]: 240 µM

Structure (SMILES): Cl.Fc1cc(OCCN2CCOCC2)cc(F)c1N=Nc1ccccc1 [Compound 20b, 2,6-difluoro-4-(2-(N-morpholino)-ethoxy)-azobenzene hydrochloride]
- τ1/2 (DMSO), Z-E isomerization half-life [1]: 456 h
- τ1/2 (Aqueous Kolliphor ELP), Z-E isomerization half-life [1]: 1.9 h
- Local Anesthetic Activity (Regnier Index, Min—13, Max—1300) In the Dark (rabbit eye cornea): 538 ± 37 (n = 6)
- Local Anesthetic Activity (Regnier Index, Min—13, Max—1300) Under Irradiation (λ = 365 nm) (rabbit eye cornea): 58 ± 8 (n = 4)
- IC50 [2]: 180 µM

Structure (SMILES): c1ccc(/N=N/c2ccc(OCCN3CCOCC3)cc2)cc1 [Compound 1, Ethercaine hydrochloride]
- τ1/2 (DMSO), Z-E isomerization half-life [1]: 2.1 h
- τ1/2 (Aqueous Kolliphor ELP), Z-E isomerization half-life [1]: 0.833 h
- Decrease in Regnier index under UV light irradiation (365 nm) versus darkness (rabbit eye cornea; dark vs 365 nm): 19 fold
- IC50 at 24 h [3]: 210 µM

Structure (SMILES): Cl.Fc1ccccc1N=Nc1ccc(OCCN2CCOCC2)cc1 [Compound 20c, 2′-fluoro-4-(2-(N-morpholino)-ethoxy)-azobenzene hydrochloride]
- τ1/2 (DMSO), Z-E isomerization half-life [1]: 3.6 h
- τ1/2 (Aqueous Kolliphor ELP), Z-E isomerization half-life [1]: 0.4 h
- Local Anesthetic Activity (Regnier Index, Min—13, Max—1300) In the Dark (rabbit eye cornea): 590 ± 24 (n = 6)
- Local Anesthetic Activity (Regnier Index, Min—13, Max—1300) Under Irradiation (λ = 365 nm) (rabbit eye cornea): 70 ± 7 (n = 4)
- IC50 [2]: 190 µM

Structure (SMILES): c1ccc(/N=N/c2ccccc2OCCN2CCOCC2)cc1 [Compound 9a, 2-(2-(N-morpholino)-ethoxy)-azobenzene hydrochloride]
- τ1/2 (DMSO), Z-E isomerization half-life [1]: 17.2 h
- τ1/2 (Aqueous Kolliphor ELP), Z-E isomerization half-life [1]: 125 h
- IC50 at 24 h [3]: > 1000 µM
